Laboratory results as given in the supplement of paper PMC11061612.

Assays:
Assay in all cases: Bliss excess, mean over the matrix (fraction); higher = more synergy
DSH1 (Bladder Carcinoma) = test system: DSH1 (Bladder Carcinoma)
In short: (§1)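 Cell lines grown in DMEM/F12 or RPMI with 10% FBS were plated in 1536-well plates and held 24 hours at 37°C, 5% CO2 before 72 hours of exposure to two-drug dose matrices, with DMSO typically at 0.2%. CellTiter-Glo 2.0 luminescence gave viability, which was converted to inhibition. Vehicle wells were set to 0 and blank wells to 1. Combination Emax is the second-highest inhibition in the matrix, and Bliss excess is the observed combination effect minus the expected EA + EB − EA·EB, where EA and EB are the single-agent effects.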

[1] = test system: MFH-ino (Other Solid Carcinomas)
In short: as §1

RH-1 (Ewing's Sarcoma) = test system: RH-1 (Ewing's Sarcoma)
In short: as §1

[2] = test system: 697 (B-Lymphoblastic Leukemia)
In short: as §1

[3] = test system: NCI-H1299 (Non-Small Cell Lung Carcinoma)
In short: as §1

[4] = test system: SW780 (Bladder Carcinoma)
In short: as §1

[5] = test system: KM-H2 (Hodgkin's Lymphoma)
In short: as §1

[6] = test system: KARPAS-1106P (B-Cell Non-Hodgkin's Lymphoma)
In short: as §1

[7] = test system: OCI-AML2 (Acute Myeloid Leukemia)
In short: as §1

SN12C (Kidney Carcinoma) = test system: SN12C (Kidney Carcinoma)
In short: as §1

[8] = test system: G-292-Clone-A141B1 (Osteosarcoma)
In short: as §1

SK-N-FI (Neuroblastoma) = test system: SK-N-FI (Neuroblastoma)
In short: as §1

[9] = test system: EM-2 (Chronic Myelogenous Leukemia)
In short: as §1

[10] = test system: NCI-H1781 (Lung Adenocarcinoma)
In short: as §1

NCI-H2595 (Mesothelioma) = test system: NCI-H2595 (Mesothelioma)
In short: as §1

[11] = test system: DB (B-Cell Non-Hodgkin's Lymphoma)
In short: as §1

[12] = test system: C3A (Hepatocellular Carcinoma)
In short: as §1

ES7 (Ewing's Sarcoma) = test system: ES7 (Ewing's Sarcoma)
In short: as §1

[13] = test system: HPAC (Pancreatic Carcinoma)
In short: as §1

[14] = test system: DOV13 (Ovarian Carcinoma)
In short: as §1

Structure (SMILES) | Bliss excess (DSH1 (Bladder Carcinoma)) | Bliss excess [1] | Bliss excess (RH-1 (Ewing's Sarcoma)) | Bliss excess [2] | Bliss excess [3] | Bliss excess [4] | Bliss excess [5] | Bliss excess [6] | Bliss excess [7] | Bliss excess (SN12C (Kidney Carcinoma)) | Bliss excess [8] | Bliss excess (SK-N-FI (Neuroblastoma)) | Bliss excess [9] | Bliss excess [10] | Bliss excess (NCI-H2595 (Mesothelioma)) | Bliss excess [11] | Bliss excess [12] | Bliss excess (ES7 (Ewing's Sarcoma)) | Bliss excess [13] | Bliss excess [14]
CC(=O)Nc1cccc(-n2c(=O)n(C3CC3)c(=O)c3c(Nc4ccc(I)cc4F)n(C)c(=O)c(C)c32)c1 [Trametinib] + Cc1nc(-c2cn3c(n2)-c2ccc(-c4cnn(C(C)(C)C(N)=O)c4)cc2OCC3)n(C(C)C)n1 [Taselisib] (first compound max 1 µM, 7x7, partner max 10 µM) | 0.0704 | 0.148 | 0.0194 | 0.117 | 0.121 | 0.129 | 0.0338 | 0.088 | 0.0227 | 0.0395 | 0.0804 | 0.033 | 0.319 | -0.053 | 0.0412 | -0.004 | 0.147 | 0.0164 | 0.0762 | 0.136
CC1(C)CCC(CN2CCN(c3ccc(C(=O)NS(=O)(=O)c4ccc(NCC5CCOCC5)c([N+](=O)[O-])c4)c(Oc4cnc5[nH]ccc5c4)c3)CC2)=C(c2ccc(Cl)cc2)C1 [Venetoclax] + C1CN(CCC1(C(=O)N[C@@H](CCO)C2=CC=C(C=C2)Cl)N)C3=NC=NC4=C3C=CN4 [Capivasertib] (first compound max 1 µM, 7x7, partner max 3 µM) | -0.0642 | -0.0294 | -0.0353 | -0.0154 | -0.0036 | -0.0335 | -0.0178 | -0.0409 | 0.0444 | -0.0557 | -0.0701 | 0.0002 | -0.0593 | -0.0811 | -0.0465 | 0.0332 | -0.0621 | -0.0178 | -0.0234 | -0.0028
CC1(C)CCC(CN2CCN(c3ccc(C(=O)NS(=O)(=O)c4ccc(NCC5CCOCC5)c([N+](=O)[O-])c4)c(Oc4cnc5[nH]ccc5c4)c3)CC2)=C(c2ccc(Cl)cc2)C1 [Venetoclax] + C=CCn1c(=O)c2cnc(Nc3ccc(N4CCN(C)CC4)cc3)nc2n1-c1cccc(C(C)(C)O)n1 [AZD1775] (first compound max 1 µM, partner max 1 µM) | -0.0476 | -0.0222 | -0.0123 | 0.0509 | 0.0038 | -0.0244 | 0.02 | 0.0627 | 0.0028 | 0 | -0.0023 | -0.0076 | -0.0094 | -0.0767 | -0.0316 | 0.0119 | -0.0511 | 0.119 | -0.0565 | 0.131
CC1(C)CCC(CN2CCN(c3ccc(C(=O)NS(=O)(=O)c4ccc(NCC5CCOCC5)c([N+](=O)[O-])c4)c(Oc4cnc5[nH]ccc5c4)c3)CC2)=C(c2ccc(Cl)cc2)C1 [Venetoclax] + CCN(CCO)CCCOc1ccc2c(Nc3cc(CC(=O)Nc4cccc(F)c4)[nH]n3)ncnc2c1 [AZD2811] (first compound max 1 µM, 7x7, partner max 1 µM) | -0.0142 | -0.0239 | -0.0548 | 0.0078 | -0.0358 | -0.007 | 0.0106 | -0.0125 | 0.0892 | -0.0267 | -0.0413 | -0.0456 | -0.0721 | 0.0061 | -0.0146 | 0.0416 | -0.0359 | 0.0074 | -0.0275 | 0.0465
CC1(C)CCC(CN2CCN(c3ccc(C(=O)NS(=O)(=O)c4ccc(NCC5CCOCC5)c([N+](=O)[O-])c4)c(Oc4cnc5[nH]ccc5c4)c3)CC2)=C(c2ccc(Cl)cc2)C1 [Venetoclax] + CN(C)CCCOc1ccc(-c2ccc3ncc4c(c3c2)n(C2CCOCC2)c(=O)n4C)cn1 [AZD0156] (first compound max 1 µM, 7x7, partner max 1 µM) | -0.0305 | -0.0403 | -0.0098 | -0.0012 | -0.004 | -0.0031 | -0.0012 | 0.0261 | -0.0267 | -0.0307 | -0.0367 | 0 | -0.0045 | 0.0048 | 0.0103 | -0.0166 | -0.0414 | 0.0317 | -0.0146 | -0.0231
CC1(C)CCC(CN2CCN(c3ccc(C(=O)NS(=O)(=O)c4ccc(NCC5CCOCC5)c([N+](=O)[O-])c4)c(Oc4cnc5[nH]ccc5c4)c3)CC2)=C(c2ccc(Cl)cc2)C1 [Venetoclax] + COc1cc(Nc2ncc3c(n2)-c2ccc(Cl)cc2C(c2c(F)cccc2OC)=NC3)ccc1C(=O)O [Alisertib] (first compound max 1 µM, 7x7, partner max 10 µM) | 0.128 | -0.0729 | -0.0065 | 0.0193 | 0.0391 | -0.0455 | 0.145 | 0.103 | 0.0826 | -0.0985 | -0.0793 | 0.0916 | 0.24 | -0.0303 | -0.0543 | 0.124 | -0.0617 | 0.0686 | -0.0517 | 0.0303
CC1(C)CCC(CN2CCN(c3ccc(C(=O)NS(=O)(=O)c4ccc(NCC5CCOCC5)c([N+](=O)[O-])c4)c(Oc4cnc5[nH]ccc5c4)c3)CC2)=C(c2ccc(Cl)cc2)C1 [Venetoclax] + C[C@@H]1COCCN1C2=NC(=NC(=C2)C3(CC3)[S@](=N)(=O)C)C4=C5C=CNC5=NC=C4 [AZD6738] (first compound max 1 µM, 7x7, partner max 10 µM) | -0.0662 | -0.0926 | -0.0158 | 0.0052 | -0.0203 | -0.0299 | 0.0384 | -0.0213 | 0.0166 | -0.047 | -0.0438 | 0.0009 | -0.0272 | 0.0284 | 0.0027 | 0.009 | -0.0503 | 0.0245 | -0.0736 | -0.001
CC1(C)CCC(CN2CCN(c3ccc(C(=O)NS(=O)(=O)c4ccc(NCC5CCOCC5)c([N+](=O)[O-])c4)c(Oc4cnc5[nH]ccc5c4)c3)CC2)=C(c2ccc(Cl)cc2)C1 [Venetoclax] + C[C@@H](Nc1cc(F)cc(F)c1)c1cc(C(=O)N(C)C)cc2c(=O)cc(N3CCOCC3)oc12 [AZD8186] (first compound max 1 µM, 7x7, partner max 3 µM) | 0.002 | -0.053 | -0.0429 | -0.0458 | -0.0492 | -0.0135 | -0.0151 | 0.0046 | -0.0033 | -0.0777 | -0.0195 | -0.0178 | 0.0104 | -0.0341 | -0.0111 | -0.0332 | -0.0803 | 0.135 | -0.0029 | -0.0073
CC1(C)CCC(CN2CCN(c3ccc(C(=O)NS(=O)(=O)c4ccc(NCC5CCOCC5)c([N+](=O)[O-])c4)c(Oc4cnc5[nH]ccc5c4)c3)CC2)=C(c2ccc(Cl)cc2)C1 [Venetoclax] + Cc1cc2ncnn2cc1Nc1ncc2c(n1)n(C1CCOCC1)c(=O)n2C [AZD7648] (first compound max 1 µM, 7x7, partner max 10 µM) | -0.027 | -0.0328 | 0.0029 | -0.0154 | -0.0352 | -0.0035 | -0.0322 | -0.0672 | 0.0273 | -0.0471 | -0.037 | 0.0047 | -0.0135 | -0.0274 | -0.0185 | 0.0225 | -0.0588 | -0.0735 | 0.0142 | 0.0659
CC1(C)CCC(CN2CCN(c3ccc(C(=O)NS(=O)(=O)c4ccc(NCC5CCOCC5)c([N+](=O)[O-])c4)c(Oc4cnc5[nH]ccc5c4)c3)CC2)=C(c2ccc(Cl)cc2)C1 [Venetoclax] + Cn1cnc2c(F)c(Nc3ccc(Br)cc3Cl)c(C(=O)NOCCO)cc21 [Selumetinib] (first compound max 1 µM, 7x7, partner max 3 µM) | 0.0225 | -0.0288 | -0.0291 | -0.0001 | -0.0424 | -0.0367 | -0.0221 | -0.0009 | 0.014 | -0.0489 | -0.0441 | 0.0374 | -0.055 | -0.0437 | -0.047 | -0.0192 | -0.017 | -0.0127 | -0.0515 | -0.0151
